Legend:
barnyardgrass [1] = experiment: Test A pre-/postemergence greenhouse test; type: in vivo, Echinochloa crus-galli; conditions: for Barnyardgrass plant response rating: 0 to 100 scale
Procedure, shortened: (§1)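 Seeds sown in a loam soil–sand blend got a preemergence directed soil spray of compound in a non-phytotoxic solvent mixture containing surfactant. Postemergence sprays of the same formulation went at the same time onto plants 2–10 cm tall at the one- to two-leaf stage. Injury was scored visually against untreated controls after about ten days in the greenhouse.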

crabgrass [2] = experiment: Test A pre-/postemergence greenhouse test; type: in vivo, Digitaria sanguinalis; conditions: for Crabgrass, Large plant response rating: 0 to 100 scale
Procedure, shortened: as §1

giant foxtail = experiment: Test A pre-/postemergence greenhouse test; type: in vivo, Setaria faberi; conditions: for Foxtail, Giant plant response rating: 0 to 100 scale
Procedure, shortened: as §1

morningglory = experiment: Test A pre-/postemergence greenhouse test; type: in vivo, Ipomoea spp.; conditions: for Morningglory plant response rating: 0 to 100 scale
Procedure, shortened: as §1

Italian ryegrass = experiment: Test C pre-/postemergence test; type: in vivo, Lolium multiflorum; conditions: Preemergence
Procedure, shortened: (§2)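 Compounds in a non-phytotoxic solvent with surfactant applied preemergence to seeded pots and, at the same time, postemergence to plants 2–18 cm tall (1- to 4-leaf stage). Paddy tests: pots flooded to 3 cm, compound applied into the water, depth held throughout.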

bermudagrass = experiment: Test C pre-/postemergence test; type: in vivo, Cynodon dactylon
Procedure, shortened: as §2

Surinam grass = experiment: Test C pre-/postemergence test; type: in vivo, Brachiaria decumbens; conditions: Preemergence
Procedure, shortened: as §2

cocklebur = experiment: Test C pre-/postemergence test; type: in vivo, Xanthium strumarium
Procedure, shortened: as §2

crabgrass [3] = experiment: Test C pre-/postemergence test; type: in vivo, Digitaria sanguinalis; conditions: Preemergence
Procedure, shortened: as §2

Goosegrass = experiment: Test C pre-/postemergence test; type: in vivo, Eleusin indica; conditions: Preemergence
Procedure, shortened: as §2

kochia = experiment: Test C pre-/postemergence test; type: in vivo, Kochia scoparia; conditions: Preemergence
Procedure, shortened: as §2

lambsquarters = experiment: Test C pre-/postemergence test; type: in vivo, Chenopodium album; conditions: Preemergence
Procedure, shortened: as §2

pigweed = experiment: Test C pre-/postemergence test; type: in vivo, Amaranthus retroflexus; conditions: Preemergence
Procedure, shortened: as §2

soybean = experiment: Test C pre-/postemergence test; type: in vivo, Glycine max; conditions: Preemergence
Procedure, shortened: as §2

[4] = system: common (oilseed) sunflower; experiment: Test C pre-/postemergence test; type: in vivo, Helianthus annuus; conditions: Preemergence
Procedure, shortened: as §2

umbrella sedge = experiment: Test C flooded paddy test; type: in vivo, Cyperus difformis; conditions: Flood
Procedure, shortened: (§3)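 Test compounds are applied straight into paddy water held 3 cm above the soil surface, with that flood maintained for the whole test. After 13 to 15 days in the greenhouse, each species is scored visually relative to controls.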

barnyardgrass [5] = experiment: Test C flooded paddy test; type: in vivo, Echinochloa crus-galli; conditions: Flood
Procedure, shortened: as §3

[6] = Postemergence, 125 g ai/ha, 0 is no effect, 100 is complete control
[7] = Postemergence, 500 g ai/ha, 0 is no effect, 100 is complete control
[8] = Preemergence, 125 g ai/ha, 0 no effect, 100 complete control
[9] = Preemergence, 500 g ai/ha, 0 to 100 scale where 0 is no effect and 100 is complete control
[10] = 31 g ai/ha, scale 0 to 100 (0 no effect, 100 complete control)
[11] = Preemergence, 31 g ai/ha, scale 0 to 100 (0 no effect, 100 complete control)
[12] = preemergence, 125 g ai/ha, scale 0 (no effect) to 100 (complete control)
[13] = 62 g ai/ha, scale 0 to 100, 0 no effect, 100 complete control, 13 to 15 days
[14] = 125 g ai/ha, scale 0 to 100, 0 no effect, 100 complete control, 13 to 15 days

## Cc1cc[n+]([O-])c(S(=O)(=O)Cc2c(C(F)(F)F)nn(C)c2Cl)c1 [Compound 19]
Barnyardgrass [1]; [6]
  Barnyardgrass plant response rating: 40
Barnyardgrass [1]; [7]
  Barnyardgrass plant response rating: 80
Barnyardgrass [1]; [8]
  Barnyardgrass plant response rating: 80
Barnyardgrass [1]; [9]
  Plant response rating, Barnyardgrass: 100
Crabgrass [2]; [6]
  Crabgrass, Large plant response rating: 40
Crabgrass [2]; [7]
  Crabgrass, Large plant response rating: 80
Crabgrass [2]; [8]
  Crabgrass, Large plant response rating: 70
Crabgrass [2]; [9]
  Plant response rating, Crabgrass, Large: 100
Giant foxtail; [6]
  Foxtail, Giant plant response rating: 50
Giant foxtail; [7]
  Foxtail, Giant plant response rating: 80
Giant foxtail; [8]
  Foxtail, Giant plant response rating: 80
Giant foxtail; [9]
  Plant response rating, Foxtail, Giant: 100
morningglory; [6]
  Morningglory plant response rating: 20
morningglory; [7]
  Morningglory plant response rating: 30
morningglory; [8]
  Morningglory plant response rating: 60
morningglory; [9]
  Plant response rating, Morningglory: 80
Italian ryegrass; 62 g ai/ha, scale 0 to 100
  Ryegrass, Italian plant response rating: 30
Italian ryegrass; [10]
  Plant response rating, Ryegrass, Italian: 0
bermudagrass; 62 g ai/ha, Preemergence, scale 0 to 100 (0 no effect, 100 complete control)
  Bermudagrass plant response rating: 100
bermudagrass; [11]
  Plant response rating, Bermudagrass: 85
bermudagrass; Preemergence, 250 g ai/ha
  Plant response rating (0 to 100), Bermudagrass: 100
bermudagrass; [12]
  Bermudagrass plant response rating: 100
Surinam grass; 62 g ai/ha, scale 0 to 100
  Surinam Grass plant response rating: 50
Surinam grass; [10]
  Plant response rating, Surinam Grass: 0
cocklebur; 62 g ai/ha, Preemergence, scale 0 to 100
  Cocklebur plant response rating: 0
cocklebur; [11]
  Plant response rating, Cocklebur: 0
cocklebur; Preemergence, 250 g ai/ha
  Plant response rating (0 to 100), Cocklebur: 30
cocklebur; [12]
  Cocklebur plant response rating: 0
Crabgrass [3]; 62 g ai/ha, scale 0 to 100
  Crabgrass, Large plant response rating: 100
Crabgrass [3]; [10]
  Plant response rating, Crabgrass, Large: 98
Crabgrass [3]; 250 g ai/ha
  Plant response rating (0 to 100), Crabgrass, Large: 100
Goosegrass; 62 g ai/ha, scale 0 to 100
  Goosegrass plant response rating: 100
Goosegrass; [10]
  Plant response rating, Goosegrass: 100
Goosegrass; 250 g ai/ha
  Plant response rating (0 to 100), Goosegrass: 100
kochia; 62 g ai/ha, scale 0 to 100
  Kochia plant response rating: 100
kochia; [10]
  Plant response rating, Kochia: 0
lambsquarters; 62 g ai/ha, scale 0 to 100
  Lambsquarters plant response rating: 0
lambsquarters; [10]
  Plant response rating, Lambsquarters: 0
pigweed; 62 g ai/ha, scale 0 to 100
  Pigweed plant response rating: 100
pigweed; [10]
  Plant response rating, Pigweed: 80
soybean; 62 g ai/ha, scale 0 to 100
  Soybean plant response rating: 0
soybean; [10]
  Plant response rating, Soybean: 0
[4]; 62 g ai/ha, scale 0 to 100
  Sunflower plant response rating: 0
[4]; [10]
  Plant response rating, Sunflower: 0
Umbrella sedge; [10]
  Plant response rating, Sedge, Umbrella: 0
Umbrella sedge; [13]
  Plant response rating, Sedge, Umbrella: 0
Umbrella sedge; [14]
  Plant response rating, Sedge, Umbrella: 70
Umbrella sedge; 250 g ai/ha, scale 0 to 100, 0 no effect, 100 complete control, 13 to 15 days
  Plant response rating, Sedge, Umbrella: 95
Barnyardgrass [5]; [10]
  Plant response rating, Barnyardgrass: 0
Barnyardgrass [5]; [13]
  Plant response rating, Barnyardgrass: 0
Barnyardgrass [5]; [14]
  Plant response rating, Barnyardgrass: 30
Barnyardgrass [5]; 250 g ai/ha, scale 0 to 100 (0 no effect, 100 complete control)
  Plant response rating, Barnyardgrass: 75
